Laboratory results: paper PMC3402541, “Guanidylation and Tail Effects in Cationic Antimicrobial Lipopeptoids” (PLoS ONE, 2012)
In brackets after ≈: the same amount, converted by molar mass. Where a SMILES comes first, the peptide text is derived from it. [ ]: non-standard residue; d: D form. The star is where a group is joined. Myristoyl = CCCCCCCCCCCCCC(=O)*; Nlys = NCCCCNCC(=O)O

Key:
MRSA ATCC 33592 = format: cell-based, methicillin-resistant S. aureus; settings: ATCC 33592, 24 h
Protocol: (§1) Antimicrobial activity of the purified lipopeptoids was determined without replication against a panel of clinically relevant and standard reference bacterial strains according to CLSI macrobroth standards. Stock solutions at 512 µg/mL were prepared in water, with DMSO as needed, and testing was performed in glass test tubes using Muller-Hinton broth and bacteria adjusted to 5 × 10^5 CFU/mL. Bacteria were incubated with the lipopeptoid of interest for 24 hr at 37°C prior to reading.
(§2) The bacteria Staphylococcus aureus ATCC 29213, methicillin-resistant S. aureus ATCC 33592, Staphylococcus epidermidis ATCC 14990, Enterococcus faecalis ATCC 29212, E. faecium ATCC 27270, Streptococcus pneumoniae ATCC 49619, Escherichia coli ATCC 25922, Pseudomonas aeruginosa ATCC 27853, and Klebsiella pneumoniae ATCC 13883 were acquired from the American Type Culture Collection (ATCC) and used as quality controls. The clinical strains methicillin-resistant S. epidermidis (MRSE) CAN-ICU 61589, E. coli CAN-ICU 61714, E. coli CAN-ICU 63074, P. aeruginosa CAN-ICU 62308, Stenotrophomonas maltophilia CAN-ICU 62584, Acinetobacter baumannii CAN-ICU 63169 were obtained from hospitals across Canada as part of the CAN-ICU studies, while methicillin-susceptible S. epidermidis (MSSE) 81388 was obtained from the 2008 CANWARD study.
(§3) After subculturing the relevant bacteria twice from frozen stock, in vitro activities of the antimicrobials were determined by macrobroth dilution methodology in accordance with the Clinical and Laboratory Standards Institute (CLSI) guidelines (3). The MICs were determined using glass test tubes (2 mL/tube) containing doubling antimicrobial dilutions of cation adjusted Mueller-Hinton broth inoculated to achieve a final concentration of approximately 5 x 10^5 CFU/mL, incubated in ambient air for 24 hr prior to reading. Colony counts were performed periodically to confirm inocula. The ATCC organisms […] ATCC 49619, Staphylococcus aureus ATCC 29213, Enterococcus faecalis ATCC 29212, Escherichia coli ATCC 25922, and Pseudomonas aeruginosa ATCC 27853 were used as quality control and to allow easy comparison to previously tested antimicrobials. Each test in this series was performed without replication. In our experience with cationic amphiphiles the results are accurate to within a single doubling.

MSSE 81388 CANWARD 2008 = format: cell-based, methicillin-susceptible S. epidermidis; settings: 24 h
Protocol: as §1, §2, §3

K.pneumoniae ATCC 13883 = format: cell-based, Klebsiella pneumoniae; settings: ATCC 13883, 24 h
Protocol: as §1, §2, §3

E. faecalis ATCC 29212 = format: cell-based, Enterococcus faecalis; settings: ATCC 29212, 24 h
Protocol: as §1, §2, §3

E. faecium ATCC 27270 = format: cell-based; settings: ATCC 27270, 24 h
Protocol: as §1, §2, §3

[1] = tested on: P.aeruginosa CAN-ICU 62308; format: cell-based, Pseudomonas aeruginosa; settings: CAN-ICU 62308, 24 h
Protocol: as §1, §2, §3

P.aeruginosa ATCC 27853 = format: cell-based, Pseudomonas aeruginosa; settings: ATCC 27853, 24 h
Protocol: as §1, §2, §3

MRSE CAN-ICU 61589 = format: cell-based, methicillin-resistant S. epidermidis; settings: CAN-ICU 61589, 24 h
Protocol: as §1, §2, §3

[2] = tested on: S. maltophilia CAN-ICU 62584; format: cell-based, Stenotrophomonas maltophilia; settings: CAN-ICU 62584, 24 h
Protocol: as §1, §2, §3

[3] = tested on: A. baumannii CAN-ICU 63169; format: cell-based, Acinetobacter baumannii; settings: CAN-ICU 63169, 24 h
Protocol: as §1, §2, §3

S.pneumoniae ATCC 49619 = format: cell-based, Streptococcus pneumoniae; settings: ATCC 49619, 24 h
Protocol: as §1, §2, §3

S.aureus ATCC 29213 = format: cell-based, Staphylococcus aureus; settings: ATCC 29213, 24 h
Protocol: as §1, §2, §3

E.coli ATCC 25922 = format: cell-based, Escherichia coli; settings: ATCC 25922, 24 h
Protocol: as §1, §2, §3

E.coli CAN-ICU 63074 = format: cell-based, Escherichia coli; settings: CAN-ICU 63074, 24 h
Protocol: as §1, §2, §3

E.coli CAN-ICU 61714 = format: cell-based, Escherichia coli; settings: CAN-ICU 61714, 24 h
Protocol: as §1, §2, §3

ovine erythrocytes = assay: Haemolytic assay; format: cell-based, sheep; settings: ovine erythrocytes in Tris buffered saline, 30 minutes, absorbance of supernatant at 540 nm
Protocol: Mammalian cell toxicity was determined by measuring lysis of ovine erythrocytes, a standard model for human cell toxicity. Cells were prewashed with Tris buffered saline and then incubated with a variety of lipopeptoid concentrations for 30 minutes. Following centrifugation, lysis was evaluated by testing the absorbance of the solution at 540 nm, with 0.5% NH4OH used as a positive control.
Toxicity to mammalian cells was determined using a sheep red blood cell (erythrocyte) haemolytic assay (4). Erythrocytes were washed and resuspended in Tris buffered saline prior to use, at a concentration of 1.46 - 4.5 x 10^9 cells/mL (on average 3.08 x 10^9 cells/mL). The cell suspension was diluted with varying concentrations of antimicrobials, from 50 μg/mL to 1 mg/mL and incubated for thirty minutes (final erythrocyte concentration 4.08 x 10^8 cells/mL). The samples were centrifuged following treatment and the absorbance of the supernatant was measured at 540 nm. A solution of 0.5% […] was used as a positive control, with normal buffered solution as the negative control. The toxicity was assessed as a function of percent haemolysis.

Compound | MIC MRSA (MRSA ATCC 33592) | MIC MRSA in the presence of 4% bovine serum albumin (MRSA ATCC 33592) | MIC MSSE (MSSE 81388 CANWARD 2008) | MIC MSSE in the presence of 4% bovine serum albumin (MSSE 81388 CANWARD 2008) | MIC K.pneumoniae (K.pneumoniae ATCC 13883) | MIC K.pneumoniae in the presence of 4% bovine serum albumin (K.pneumoniae ATCC 13883) | MIC E. faecalis (E. faecalis ATCC 29212) | MIC E. faecalis in the presence of 4% bovine serum albumin (E. faecalis ATCC 29212) | MIC E. faecium (E. faecium ATCC 27270) | MIC E. faecium in the presence of 4% bovine serum albumin (E. faecium ATCC 27270) | MIC P.aeruginosa [1] | MIC P.aeruginosa in the presence of 4% bovine serum albumin [1] | MIC P.aeruginosa (P.aeruginosa ATCC 27853) | MIC P.aeruginosa in the presence of 4% bovine serum albumin (P.aeruginosa ATCC 27853) | MIC MRSE (MRSE CAN-ICU 61589) | MIC MRSE in the presence of 4% bovine serum albumin (MRSE CAN-ICU 61589) | MIC S. maltophilia [2] | MIC S. maltophilia in the presence of 4% bovine serum albumin [2] | MIC A. baumannii [3] | MIC A. baumannii in the presence of 4% bovine serum albumin [3] | other results
CCCCCCCCCCCCCC(=O)N(CCCCN)CC(=O)NCC(=O)N(CCCCN)CC(N)=O [C14-NlysGNlys] (Myristoyl-[Nlys]-Gly-[Nlys]-NH2) | 32 µg/mL (≈ 59.2 µM) | 512 µg/mL | 16 µg/mL (≈ 29.6 µM) | 512 µg/mL | 256 µg/mL (≈ 473 µM) | >512 µg/mL | 64 µg/mL (≈ 118 µM) | >512 µg/mL | 64 µg/mL (≈ 118 µM) | 512 µg/mL | 512 µg/mL (≈ 947 µM) | >512 µg/mL | 256 µg/mL (≈ 473 µM) | >512 µg/mL | 32 µg/mL (≈ 59.2 µM) | 512 µg/mL | 512 µg/mL (≈ 947 µM) | >512 µg/mL | 256 µg/mL (≈ 473 µM) | >512 µg/mL | MIC S.pneumoniae (S.pneumoniae ATCC 49619): 256 µg/mL (≈ 473 µM); MIC S.pneumoniae in the presence of 4% bovine serum albumin (S.pneumoniae ATCC 49619): >512 µg/mL; MIC S.aureus (S.aureus ATCC 29213): 32 µg/mL (≈ 59.2 µM); MIC S.aureus in the presence of 4% bovine serum albumin (S.aureus ATCC 29213): 512 µg/mL; MIC E.coli (E.coli ATCC 25922): 128 µg/mL (≈ 237 µM); MIC E.coli in the presence of 4% bovine serum albumin (E.coli ATCC 25922): >512 µg/mL; MIC E.coli (E.coli CAN-ICU 63074): 128 µg/mL (≈ 237 µM); MIC E.coli in the presence of 4% bovine serum albumin (E.coli CAN-ICU 63074): >512 µg/mL; MIC E.coli (E.coli CAN-ICU 61714): 128 µg/mL (≈ 237 µM); MIC E.coli in the presence of 4% bovine serum albumin (E.coli CAN-ICU 61714): >512 µg/mL; Percent haemolysis at 100µg/mL of compound (ovine erythrocytes): 2.90%
CCCCCCCCCCCCCC(=O)N(CCCCN)CC(=O)N(CCCCN)CC(=O)N(CCCCN)CC(N)=O [C14-NlysNlysNlys] | 64 µg/mL (≈ 105 µM) | 512 µg/mL | 32 µg/mL (≈ 52.3 µM) | 512 µg/mL | 512 µg/mL (≈ 837 µM) | >512 µg/mL | 64 µg/mL (≈ 105 µM) | 512 µg/mL | 64 µg/mL (≈ 105 µM) | 512 µg/mL | 512 µg/mL (≈ 837 µM) | 512 µg/mL | 512 µg/mL (≈ 837 µM) | >512 µg/mL | 16 µg/mL (≈ 26.1 µM) | 512 µg/mL | >512 µg/mL | >512 µg/mL | 512 µg/mL (≈ 837 µM) | >512 µg/mL | MIC S.pneumoniae (S.pneumoniae ATCC 49619): 128 µg/mL (≈ 209 µM); MIC S.pneumoniae in the presence of 4% bovine serum albumin (S.pneumoniae ATCC 49619): >512 µg/mL; MIC S.aureus (S.aureus ATCC 29213): 32 µg/mL (≈ 52.3 µM); MIC S.aureus in the presence of 4% bovine serum albumin (S.aureus ATCC 29213): 512 µg/mL; MIC E.coli (E.coli ATCC 25922): 128 µg/mL (≈ 209 µM); MIC E.coli in the presence of 4% bovine serum albumin (E.coli ATCC 25922): >512 µg/mL; MIC E.coli (E.coli CAN-ICU 63074): 128 µg/mL (≈ 209 µM); MIC E.coli in the presence of 4% bovine serum albumin (E.coli CAN-ICU 63074): >512 µg/mL; MIC E.coli (E.coli CAN-ICU 61714): 128 µg/mL (≈ 209 µM); MIC E.coli in the presence of 4% bovine serum albumin (E.coli CAN-ICU 61714): >512 µg/mL; Percent haemolysis at 100µg/mL of compound (ovine erythrocytes): 2.19%
